In patent publication EP0324328B1, “Use of the N-n-butyl derivative of desoxynojirimycin in the manufacture of a medicament inhibiting HIV-Virus” (priority 1987, dated 1989):

Experiments:
[1] = biological target: T1, glucosidase I (Bos taurus, UniProt A0A3Q1M9D9); details: reported by Schweden et al., Arch. Biochem. Biophys. 248(1), 335-340 (1986); cited from earlier work
T1 sequence (A0A3Q1M9D9 1-839): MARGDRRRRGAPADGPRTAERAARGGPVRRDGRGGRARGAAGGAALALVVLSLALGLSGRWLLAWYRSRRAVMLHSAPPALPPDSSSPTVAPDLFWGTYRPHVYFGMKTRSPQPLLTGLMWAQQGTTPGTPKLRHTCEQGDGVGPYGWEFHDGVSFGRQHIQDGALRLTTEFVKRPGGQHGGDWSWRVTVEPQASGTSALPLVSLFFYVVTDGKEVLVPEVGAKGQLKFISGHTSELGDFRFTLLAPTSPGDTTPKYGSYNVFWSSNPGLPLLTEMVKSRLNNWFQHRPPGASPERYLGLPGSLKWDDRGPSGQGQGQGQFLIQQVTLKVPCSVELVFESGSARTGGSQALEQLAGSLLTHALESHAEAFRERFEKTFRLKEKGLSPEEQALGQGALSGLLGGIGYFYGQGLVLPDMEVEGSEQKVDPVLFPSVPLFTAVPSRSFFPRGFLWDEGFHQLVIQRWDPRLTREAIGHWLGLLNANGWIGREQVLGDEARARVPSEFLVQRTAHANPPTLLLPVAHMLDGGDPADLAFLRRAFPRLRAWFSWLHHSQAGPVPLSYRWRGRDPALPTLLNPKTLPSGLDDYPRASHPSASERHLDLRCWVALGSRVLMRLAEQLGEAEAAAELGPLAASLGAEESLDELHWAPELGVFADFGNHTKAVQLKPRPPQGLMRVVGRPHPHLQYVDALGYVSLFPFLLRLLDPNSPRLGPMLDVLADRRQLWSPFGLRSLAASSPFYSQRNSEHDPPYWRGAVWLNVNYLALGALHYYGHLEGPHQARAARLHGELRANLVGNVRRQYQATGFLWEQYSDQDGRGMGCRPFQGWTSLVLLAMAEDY

[2] = tested on: HIV; assay: TCID titre of culture supernatants of T-45 cells infected with HIV, Fig. 4; format: cell-based; details: for reduction of TCID titre of culture supernatants: T-45 cells infected with HIV, after 10 days in culture, result in words; for reduction of the virus titer / yield of infectious HIV: at non-cytotoxic concentrations
Experimental: FIG. 4 is a graphical representation in which the viral titer (determined as TCID) is plotted against the concentration in mg/ml of various of the test compounds (drugs) of FIG. 3 in panels (a) and (b).
Cell free suspensions of the HIV were prepared from infected cultures. The concentration of infectious particles was estimated on end-point titration assay using serial ten-fold dilutions. The approximate number of infectious particles in each preparation was determined by the highest dilution which contains infectious HIV as determined by synctial formation, cytopathicity [Leonard et al., Proc. Natl. Acad. Sci. USA 85, 3570-3574 (1988); Barre-Sinoussi et al., Science 220, 868-870 (1983)] and HIV antigen [Karpas et al., Lancet 1, 695-697 (1985)] synthesis after 10 days of culture with 10^4 T-cells. This represents the concentration of infectious particles, herein defined as the tissue culture infectious dose (TCID).
The efficacy of the test compounds used in this example was assessed as follows: 0.2 ml of culture medium containing 10^4 T-45 cells were transferred into each well of a 96-well flat-bottomed tissue-culture plastic plate and the cells were allowed to settle at 37°C (see Figure 1). After 4 hours the media were aspirated and replaced with media which contained the test compound. Following overnight incubation the media was aspirated and 10^4 TCID of virus (HIV-1 or HIV-2) was added to each well. Incubation was continued at 37°C in 5% CO2 for 1 hour. Thereafter, growth media containing the various compounds were added and incubation at 37°C was continued. On the fourth day the cell suspensions from each well were split and seeded into two new wells and 0.2 ml of fresh media with compounds was added. This was repeated on the seventh day. Cells were examined by microscopy during days 1 to 10 for the presence of syncytia, growth rate and the appearance of the cytopathic effect (CPE) (giant cells, pycnotic nuclei, loss of refractility). CPE (100%) was defined as no round, refractile, uniform cells remaining; only giant, ballooned pyknotic cells were present. The viability of HIV infected cultures was determined by a rough count/estimate of cells which underwent CPE in relation to round refractile uniform (normal) cells in a given culture. Cells in wells which were incubated with compounds which appeared to inhibit or reduce HIV replication and in which there was marked cell proliferation were either transferred to larger wells (of a 24-well plate) or divided in order to maintain an approximate constant cell density to promote continuous cell division.
Quantitative data on the effect of the various compounds on the non-infected cells (cytotoxicity) was obtained by comparison of their growth rate to control cells not exposed to drugs (Table 1). Fig. 4 and Table 2 show the relation between the TCID titre of culture supernatants of T-45 cells infected with HIV after 10 days in culture and the concentration of drug. […] The inability of any of these drugs alone to totally reduce the TCID may be due to heterogeneity of virus production or spread. […] In addition, the MOLT-4 cell line was also used.

[3] = tested on: HIV-1; assay: Time to develop CPE after transfer of HIV-1 infected cells to drug-free medium; format: cell-based
Experimental: FIG. 2 is a schematic outline of the test procedure used to determine the relative proportion of HIV-infected cells in cultures containing 0.1 mg/ml of the inhibitory test compound. At various times aliquots of the infected cell suspensions were transferred to inhibitor-free medium and the time taken for the cells to develop cytopathic effect (CPE) was recorded.
After 55 days of culture (O) in the presence of drug no virus appeared during 100 additional days of culture in the absence of drug (after removal of drug).
To determine if there was a gradual reduction of HIV-infected cells in cultures maintained with BuDNJ, aliquots of cells infected with 10^4 TCID of HIV-1 and grown in the presence of 0.1 mg/ml BuDNJ for varying lengths of time were transferred to separate wells and grown in drug-free medium as indicated in […]. The cultures were then monitored for development of CPE, indicative of active HIV replication. The times for the appearance of an advanced CPE were recorded. […]
In order to determine whether or not there was an actual reduction in HIV-infected cells in the presence of BuDNJ, aliquots of the infected cell suspension, grown for varying times in the presence or drug, where transferred to drug-free medium as outlined in Figure 2. The cultures were then monitored for the development of CPE and giant cell formation (indicative of active HIV replication). […]

[4] = tested on: B16-F10 murine melanoma cells; assay: Incorporation of radiolabeled galactose, mannose, glucose and thymidine into cells; format: cell-based; details: result in words; for galactose incorporation into the cells: radiolabeled galactose; for glucose utilization/inhibition: radiolabeled glucose; for mannose utilization: radiolabeled mannose
[5] = replicate tests (Tables 2 and 3), two virus strains, two cell lines

SMILES	glucosidase I inhibitory activity [1]	reduction of TCID titre of culture supernatants [2]	reduction of the virus titer / yield of infectious HIV [2]	effectiveness as an inhibitor of HIV compared with N-ethyl deoxynojirimycin [2, 5]	effectiveness as an inhibitor of HIV compared with N-methyl-deoxynojirimycin [2, 5]	days before CPE expression ([3]; 0.1 mg/ml drug for 55 days of culture, then culture in the absence of drug)	proportion of infected cells in the cultures ([3]; prolonged exposure, 0.1 mg/ml, result in words)	galactose incorporation into the cells [4]	glucose utilization/inhibition [4]	mannose utilization [4]	^3H-Thymidine uptake into the cells [4]
CCCCN1C[C@H](O)[C@@H](O)[C@H](O)[C@H]1CO [BuDNJ, N-n-butyl-deoxynojirimycin]	virtually identical	negligible virus TCID titres	over five logs	three log orders more effective	two log orders more effective	> 100 days	reduced the proportion of infected cells in the cultures	substantially inhibited galactose incorporation into the cells at 1.0 mM or less	little or no effect	inhibited mannose utilization	not affected by N-butyl-DNJ up to 2.0 mM
CN1C[C@H](O)[C@@H](O)[C@H](O)[C@H]1CO [MeDNJ, N-methyl-deoxynojirimycin]	virtually identical	reduced the TCID only partially	two to four log-order of reduction					only slightly inhibitory	inverted dose-response curve	either stimulated incorporation or, conservatively, had no effect	inhibited incorporation at 1.0 mM
